Assay results reported in patent publication US10219516B2, “Molecules having pesticidal utility, and intermediates, compositions, and processes, related thereto” (priority 2015, dated 2019).

Columns and labels:
Assay type in all cases: in vivo
[1] = tested on: Beet Armyworm (Spodoptera exigua, LAPHEG); assay: Bioassay on Beet Armyworm (BAW), 128-well diet tray assay; settings: Beet Armyworm, 128-well diet tray assay, read-out: BAW rating
Summary of the method: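 Test molecule dissolved in acetone-water 90:10 is applied at 50 μg/cm^2 onto artificial diet and allowed to dry. Second instar larvae, one to five per well, are then added, and trays are vented and kept at 25° C. for five to seven days before mortality is scored.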

[2] = tested on: Cabbage Looper (Trichoplusia ni, TRIPNI); assay: Bioassay on Cabbage Looper (CL), 128-well diet tray assay; settings: Trichoplusia ni; Cabbage Looper, 128-well diet tray assay; read-out: CL rating
Summary of the method: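 Second-instar larvae, one to five per well, placed on artificial diet treated with 50 μg/cm^2 test molecule in 90:10 acetone-water, dried before infestation. Held 5–7 days at 25° C, 14:10 light-dark; percent mortality averaged over eight wells.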

[3] = tested on: Yellow Fever Mosquito (Aedes aegypti, AEDSAE); assay: Bioassay on Yellow Fever Mosquito (YFM), 96-well plate larval assay; settings: Yellow Fever Mosquito, 96-well plate larval assay
Summary of the method: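 Aedes aegypti larvae (about 1 day old) in liver-powder water were added to plates dispensed from DMSO master plates (4000 ppm stock) diluted with 90:10 water/acetone; six replicate plates per master. Lidded plates were held at room temperature for 3 days, then each well was scored for mortality.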

SMILES | pest or weed control at 50 µg/cm2 [1] | pest or weed control at 50 µg/cm2 [2] | YFM rating [3]
Cc1cc(N2C(=O)C=CC2=O)ccc1NC(=O)c1cc(NC(=O)[C@H]2[C@H](c3cc(Cl)cc(Cl)c3)C2(Cl)Cl)ccc1Cl (relative stereo) [F480, 2-chloro-5-(trans-2,2-dichloro-3-(3,5-dichlorophenyl)cyclopropane-1-carboxamido)-N-(4-(2,5-dioxo-2,5-dihydro-1H-pyrrol-1-yl)-2-methylphenyl)benzamide] | 50 to 100% | 50 to 100% | A (80-100)
O=C(Nc1ccc2scnc2c1)c1cc(NC(=O)[C@H]2[C@H](c3cc(Cl)cc(Cl)c3)C2(Cl)Cl)ccc1Cl (relative stereo) [F482, trans-N-(Benzo[d]thiazol-5-yl)-2-chloro-5-(2,2-dichloro-3-(3,5-dichlorophenyl)cyclopropane-1-carboxamido)benzamide] | 50 to 100% | 50 to 100% | A (80-100)
CCOC(=O)c1cc2cc(NC(=O)c3cc(NC(=O)[C@H]4[C@H](c5cc(Cl)cc(Cl)c5)C4(Cl)Cl)ccc3Cl)ccc2[nH]1 (relative stereo) [F483, Ethyl 5-(2-chloro-5-(trans)(2,2-dichloro-3-(3,5-dichlorophenyl)cyclopropane-1-carboxamido)benzamido)-1H-indole-2-carboxylate] | 50 to 100% | 50 to 100% | A (80-100)
Cc1c(NC(=O)c2cc(NC(=O)[C@H]3[C@H](c4cc(Cl)cc(Cl)c4)C3(Cl)Cl)ccc2Cl)ccc2[nH]ccc12 (relative stereo) [F485, 2-Chloro-5-(trans)-(2,2-dichloro-3-(3,5-dichlorophenyl)cyclopropane-1-carboxamido)-N-(4-methyl-1H-indol-5-yl)benzamide] | 50 to 100% | 50 to 100% | A (80-100)
CC(C)(C)c1cc2cc(NC(=O)c3cc(NC(=O)[C@H]4[C@H](c5cc(Cl)cc(Cl)c5)C4(Cl)Cl)ccc3Cl)ccc2[nH]1 (relative stereo) [F486, N-(2-(tert-Butyl)-1H-indol-5-yl)-2-chloro-5-(trans)-(2,2-dichloro-3-(3,5-dichlorophenyl)cyclopropane-1-carboxamido)benzamide] | 50 to 100% | 50 to 100% | A (80-100)
CCn1ccc2cc(NC(=O)c3cc(NC(=O)[C@H]4[C@H](c5cc(Cl)cc(Cl)c5)C4(Cl)Cl)ccc3Cl)ccc21 (relative stereo) [F488, 2-Chloro-5-(trans)-(2,2-dichloro-3-(3,5-dichlorophenyl)cyclopropane-1-carboxamido)-N-(1-ethyl-1H-indol-5-yl)benzamide] | 50 to 100% | 50 to 100% | A (80-100)
CN1C(=O)CCc2cc(NC(=O)c3cc(NC(=O)[C@H]4[C@H](c5cc(Cl)cc(Cl)c5)C4(Cl)Cl)ccc3Cl)ccc21 (relative stereo) [F490, 2-chloro-5-(trans)-(2,2-dichloro-3-(3,5-dichlorophenyl)cyclopropane-1-carboxamido)-N-(1-methyl-2-oxo-1,2,3,4-tetrahydroquinolin-6-yl)benzamide] | 50 to 100% | 50 to 100% | A (80-100)
CN1CCCc2cc(NC(=O)c3cc(NC(=O)[C@H]4[C@H](c5cc(Cl)cc(Cl)c5)C4(Cl)Cl)ccc3Cl)ccc21 (relative stereo) [F491, 2-Chloro-5-(trans)-(2,2-dichloro-3-(3,5-dichlorophenyl)cyclopropane-1-carboxamido)-N-(1-methyl-1,2,3,4-tetrahydroquinolin-6-yl)benzamide] | 50 to 100% | 50 to 100% | A (80-100)
O=C(Nc1ccc2c(c1)CCCN2)c1cc(NC(=O)[C@H]2[C@H](c3cc(Cl)cc(Cl)c3)C2(Cl)Cl)ccc1Cl (relative stereo) [F492, 2-Chloro-5-(trans)-(2,2-dichloro-3-(3,5-dichlorophenyl)cyclopropane-1-carboxamido)-N-(1,2,3,4-tetrahydroquinolin-6-yl)benzamide] | 50 to 100% | 50 to 100% | A (80-100)
N#Cc1ccc2c(N)nn(C(=O)c3cc(NC(=O)[C@H]4[C@H](c5cc(Cl)cc(Cl)c5)C4(Cl)Cl)ccc3Cl)c2c1 (relative stereo) [F493, trans-N-(3-(3-Amino-6-cyano-1H-indazole-1-carbonyl)-4-chlorophenyl)-2,2-dichloro-3-(3,5-dichlorophenyl)cyclopropane-1-carboxamide] | 50 to 100% | 50 to 100% | A (80-100)
CC(=O)Nc1cccc(NC(=O)c2cc(NC(=O)[C@H]3[C@H](c4cc(Cl)cc(Cl)c4)C3(Cl)Cl)ccc2Cl)n1 (relative stereo) [F494, N-(6-Acetamidopyridin-2-yl)-2-chloro-5-(trans-2,2-dichloro-3-(3,5-dichlorophenyl)cyclopropane-1-carboxamido)benzamide] | 50 to 100% | 50 to 100% | A (80-100)
O=C(Nc1ccc2c(ccn2CCF)c1)c1cc(NC(=O)[C@H]2[C@H](c3cc(Cl)cc(Cl)c3)C2(Cl)Cl)ccc1Cl (relative stereo) [F496, 2-Chloro-5-(trans)-(2,2-dichloro-3-(3,5-dichlorophenyl)cyclopropane-1-carboxamido)-N-(1-(2-fluoroethyl)-1H-indol-5-yl)benzamide] | 50 to 100% | 50 to 100% | A (80-100)
O=C(Nc1ccc2[nH]c(-c3ccccc3)cc2c1)c1cc(NC(=O)[C@H]2[C@H](c3cc(Cl)cc(Cl)c3)C2(Cl)Cl)ccc1Cl (relative stereo) [F497, 2-Chloro-5-(trans)-(2,2-dichloro-3-(3,5-dichlorophenyl)cyclopropane-1-carboxamido)-N-(2-phenyl-1H-indol-5-yl)benzamide] | 50 to 100% | 50 to 100% | A (80-100)
O=C(Nc1ccc2c(c1)C(=O)N(c1ccc(F)cc1)C2=O)c1cc(NC(=O)[C@H]2[C@H](c3cc(Cl)cc(Cl)c3)C2(Cl)Cl)ccc1Cl (relative stereo) [F504, 2-Chloro-5-(trans)-(2,2-dichloro-3-(3,5-dichlorophenyl)cyclopropane-1-carboxamido)-N-(2-(4-fluorophenyl)-1,3-dioxoisoindolin-5-yl)benzamide] | 50 to 100% | 50 to 100% | A (80-100)
CC(C)(C)OC(=O)Nc1cccc(NC(=O)c2cc(NC(=O)[C@H]3[C@H](c4ccc(F)c(Cl)c4)C3(Cl)Cl)ccc2Cl)n1 (relative stereo) [F506, tert-Butyl (6-(2-chloro-5-(trans-2,2-dichloro-3-(3-chloro-4-fluorophenyl)cyclopropane-1-carboxamido)benzamido)pyridin-2-yl)carbamate] | 50 to 100% | 50 to 100% | A (80-100)
O=C(Nc1ccc2c(c1)CCN2)c1cc(NC(=O)[C@H]2[C@H](c3cc(Cl)cc(Cl)c3)C2(Cl)Cl)ccc1Cl (relative stereo) [F511, 2-Chloro-5-(trans)-(2,2-dichloro-3-(3,5-dichlorophenyl)cyclopropane-1-carboxamido)-N-(indolin-5-yl)benzamide] | 50 to 100% | 50 to 100% | A (80-100)
CC(C)(C)OC(=O)N(C(=O)OC(C)(C)C)c1c(F)ccc(NC(=O)c2cc(NC(=O)[C@H]3[C@H](c4cccc(C(F)(F)F)c4)C3(Cl)Cl)ccc2Cl)c1F (relative stereo) [F516, trans-tert-Butyl-N-((tert-butoxy)carbonyl)-N-(3-(2-chloro-5-(2,2-dichloro-3-(3-(trifluoromethyl)phenyl)cyclopropane-1-carboxamido)benzamido)-2,6-difluorophenyl)carbamate] | 50 to 100% | 50 to 100% | A (80-100)
CN1Cc2ccc(NC(=O)c3cc(NC(=O)[C@H]4[C@H](c5cc(Cl)cc(Cl)c5)C4(Cl)Cl)ccc3Cl)cc2C1=O (relative stereo) [F517, 2-Chloro-5-(trans)-(2,2-dichloro-3-(3,5-dichlorophenyl)cyclopropane-1-carboxamido)-N-(2-methyl-3-oxoisoindolin-5-yl)benzamide] | 50 to 100% | 50 to 100% | A (80-100)
CN1Cc2cc(NC(=O)c3cc(NC(=O)[C@H]4[C@H](c5cc(Cl)cc(Cl)c5)C4(Cl)Cl)ccc3Cl)ccc2C1=O (relative stereo) [F518, 2-Chloro-5-(trans)-(2,2-dichloro-3-(3,5-dichlorophenyl)cyclopropane-1-carboxamido)-N-(2-methyl-1-oxoisoindolin-5-yl)benzamide] | 50 to 100% | 50 to 100% | A (80-100)
O=C(Nc1cc2cc[nH]c2cc1F)c1cc(NC(=O)[C@H]2[C@H](c3cc(Cl)cc(Cl)c3)C2(Cl)Cl)ccc1Cl (relative stereo) [F527, 2-Chloro-5-(trans)-(2,2-dichloro-3-(3,5-dichlorophenyl)cyclopropane-1-carboxamido)-N-(6-fluoro-1H-indol-5-yl)benzamide] | 50 to 100% | 50 to 100% | A (80-100)
